Converted amounts (≈) assume the structure as drawn.
Assays:
Staphylococcus aureus = experiment: Antibacterial activity against methicillin-resistant Staphylococcus aureus (MRSA); format: functional
Mus musculus [1] = experiment: In vivo antibacterial activity against MSSA MB 2985 strain at the dose ~4 *10e7 cfu in brain heart broth along with antibiotic by administration at 0 hour in mice; format: functional
Streptococcus pneumoniae = experiment: Antibacterial activity against penicillin-resistant Streptococcus pneumoniae; format: functional
Streptococcus pyogenes = experiment: Antibacterial activity against Streptococcus pyogenes; format: functional
Mus musculus [2] = experiment: In vivo antibacterial activity against MRSA 76 virginia strain at the dose ~1 *10e7 cfu in 5 percent hog gastric mucin along with antibiotic by sc administration at 0 and +4 hrs in mice; format: functional
Staphylococcus sp. = experiment: Antibacterial activity against methicillin-resistant coagulase negative Staphylococci (MRCNS); format: functional
Bacteria = experiment: Antibacterial activity against Gram negative bacteria; format: functional
Enterococcus faecalis = experiment: Antibacterial activity against vancomycin-resistant Enterococcus faecalis strain; format: functional
Enterococcus faecium = experiment: Antibacterial activity against vancomycin-resistant Enterococcal faecium strain; format: functional
Mus musculus [3] = experiment: In vivo antibacterial activity against MSSA MB 2985 strain at the dose ~4 *10e7 cfu in brain heart broth along with antibiotic by sc administration at 0 hour in mice; format: functional
MecA = target: T1, MecA (Staphylococcus aureus, UniProt Q7DHH4); experiment: Binding affinity against PBP2a receptor by competition analysis with [3H]benzylpenicillin using cell membrane fractions from the MRSA COL strain.
T1 sequence (Q7DHH4 whole entry): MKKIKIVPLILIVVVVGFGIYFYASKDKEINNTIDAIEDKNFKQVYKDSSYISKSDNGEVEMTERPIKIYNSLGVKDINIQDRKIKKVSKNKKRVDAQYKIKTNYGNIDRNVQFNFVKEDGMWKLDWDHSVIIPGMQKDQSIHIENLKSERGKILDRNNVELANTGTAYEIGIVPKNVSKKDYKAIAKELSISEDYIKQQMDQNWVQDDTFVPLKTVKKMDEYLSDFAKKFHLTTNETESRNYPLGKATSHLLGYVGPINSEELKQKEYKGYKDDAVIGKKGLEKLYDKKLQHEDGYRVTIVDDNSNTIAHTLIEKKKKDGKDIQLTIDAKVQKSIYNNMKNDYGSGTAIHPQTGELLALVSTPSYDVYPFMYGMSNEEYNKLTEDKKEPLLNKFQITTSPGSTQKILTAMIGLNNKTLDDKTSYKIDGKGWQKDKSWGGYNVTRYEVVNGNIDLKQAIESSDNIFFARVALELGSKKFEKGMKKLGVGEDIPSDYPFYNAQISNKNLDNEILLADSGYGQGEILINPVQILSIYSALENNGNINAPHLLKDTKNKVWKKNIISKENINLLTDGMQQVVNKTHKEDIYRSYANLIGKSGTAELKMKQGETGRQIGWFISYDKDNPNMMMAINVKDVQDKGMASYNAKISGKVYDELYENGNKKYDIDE

CN[C@H](CC(C)C)C(=O)N[C@H]1C(=O)N[C@@H](CC(N)=O)C(=O)N[C@H]2C(=O)N[C@H]3C(=O)N[C@H](C(=O)N[C@H](C(=O)O)c4cc(O)cc(O)c4-c4cc3ccc4O)[C@H](O)c3ccc(c(Cl)c3)Oc3cc2cc(c3O[C@@H]2O[C@H](CO)[C@@H](O)[C@H](O)[C@H]2O[C@H]2C[C@](C)(N)[C@H](O)[C@H](C)O2)Oc2ccc(cc2Cl)[C@H]1O [VANCOMYCIN]
MIC50 (Staphylococcus aureus): 1 µg/mL (≈ 0.69 µM)
MIC90 (Staphylococcus aureus): 2 µg/mL (≈ 1.38 µM)
MIC (Mus musculus [1]): 1 µg/mL (≈ 0.69 µM)
MIC (Streptococcus pneumoniae): 0.25 µg/mL (≈ 0.173 µM)
MIC (Streptococcus pyogenes): 0.25 µg/mL (≈ 0.173 µM)
ED50 (Mus musculus [2]): 2.33 mg kg-1 dose-1
MIC (Mus musculus [2]): 1 µg/mL (≈ 0.69 µM)
MIC50 (Staphylococcus sp.): 4 µg/mL (≈ 2.76 µM)
MIC90 (Staphylococcus sp.): 4 µg/mL (≈ 2.76 µM)
MIC (Bacteria): > 64 µg/mL
MIC (Enterococcus faecalis): 32 µg/mL (≈ 22.1 µM)
MIC (Enterococcus faecium): > 64 µg/mL
ED50 (Mus musculus [3]): 3.7 mg/kg

C[C@@H](O)[C@H]1C(=O)N2C(C(=O)O)=C(c3ccc4c(c3)-c3ccc(C[N+]56CC[N+](CC(=O)Nc7ccc(CCO)cc7)(CC5)CC6)cc3C4=O)[C@H](C)[C@H]12.[Cl-].[Cl-]
MIC50 (Staphylococcus aureus): 1 µg/mL
MIC90 (Staphylococcus aureus): 2 µg/mL
IC50 (MecA): 1310 nM
MIC50 (Staphylococcus sp.): 2 µg/mL
MIC90 (Staphylococcus sp.): 4 µg/mL

C[C@@H](O)[C@H]1C(=O)N2C(C(=O)O)=C(c3ccc4c(c3)-c3ccc(C[N+]56CC[N+](CC(=O)Nc7cccc(C(N)=O)c7)(CC5)CC6)cc3C4=O)[C@H](C)[C@H]12.[Cl-].[Cl-]
MIC50 (Staphylococcus aureus): 1 µg/mL
MIC90 (Staphylococcus aureus): 1 µg/mL
IC50 (MecA): 1220 nM
MIC50 (Staphylococcus sp.): 1 µg/mL
MIC90 (Staphylococcus sp.): 2 µg/mL

C[C@@H](O)[C@H]1C(=O)N2C(C(=O)O)=C(c3ccc4c(c3)-c3ccc(C[N+]56CC[N+](CC(=O)N(C)c7ccccc7)(CC5)CC6)cc3C4=O)[C@H](C)[C@H]12.[Cl-].[Cl-]
MIC50 (Staphylococcus aureus): 4 µg/mL
MIC90 (Staphylococcus aureus): 4 µg/mL
IC50 (MecA): 1230 nM
MIC50 (Staphylococcus sp.): 8 µg/mL
MIC90 (Staphylococcus sp.): 16 µg/mL

COc1cccc(NC(=O)C[N+]23CC[N+](Cc4ccc5c(c4)C(=O)c4ccc(C6=C(C(=O)O)N7C(=O)[C@H]([C@@H](C)O)[C@H]7[C@H]6C)cc4-5)(CC2)CC3)c1.[Cl-].[Cl-]
MIC50 (Staphylococcus aureus): 1 µg/mL
MIC90 (Staphylococcus aureus): 1 µg/mL
IC50 (MecA): 2430 nM
MIC50 (Staphylococcus sp.): 1 µg/mL
MIC90 (Staphylococcus sp.): 4 µg/mL

C[C@@H](O)[C@H]1C(=O)N2C(C(=O)O)=C(c3ccc4c(c3)-c3ccc(C[N+]56CC[N+](CCO)(CC5)CC6)cc3C4=O)[C@H](C)[C@H]12.[Cl-].[Cl-]
MIC50 (Staphylococcus aureus): 4 µg/mL
MIC90 (Staphylococcus aureus): 4 µg/mL
IC50 (MecA): 1030 nM
MIC50 (Staphylococcus sp.): 4 µg/mL
MIC90 (Staphylococcus sp.): 8 µg/mL

C[C@@H](O)[C@H]1C(=O)N2C(C(=O)O)=C(c3ccc4c(c3)-c3ccc(C[N+]56CC[N+](C)(CC5)CC6)cc3C4=O)[C@H](C)[C@H]12.[Cl-].[Cl-]
MIC50 (Staphylococcus aureus): 2 µg/mL
MIC90 (Staphylococcus aureus): 4 µg/mL
IC50 (MecA): 1230 nM
MIC50 (Staphylococcus sp.): 4 µg/mL
MIC90 (Staphylococcus sp.): 8 µg/mL

C[C@@H](O)[C@H]1C(=O)N2C(C(=O)O)=C(c3ccc4c(c3)-c3ccc(C[N+]56CC[N+](Cc7ccccc7)(CC5)CC6)cc3C4=O)[C@H](C)[C@H]12.[Cl-].[Cl-]
MIC50 (Staphylococcus aureus): 1 µg/mL
MIC90 (Staphylococcus aureus): 2 µg/mL
IC50 (MecA): 3250 nM
MIC50 (Staphylococcus sp.): 2 µg/mL
MIC90 (Staphylococcus sp.): 8 µg/mL

C[C@@H](O)[C@H]1C(=O)N2C(C(=O)O)=C(c3ccc4c(c3)-c3ccc(C[N+]56CC[N+](CC(=O)Nc7cccc(CO)c7)(CC5)CC6)cc3C4=O)[C@H](C)[C@H]12.[Cl-].[Cl-]
MIC50 (Staphylococcus aureus): 1 µg/mL
MIC90 (Staphylococcus aureus): 2 µg/mL
IC50 (MecA): 1600 nM
MIC50 (Staphylococcus sp.): 1 µg/mL
MIC90 (Staphylococcus sp.): 4 µg/mL

— ChEMBL document CHEMBL1131884, “Dicationic 2-fluorenonylcarbapenems: potent anti-MRS agents with improved solubility and pharmacokinetic properties” (Bioorg Med Chem Lett, 1999)
